Columns and labels:
Pyrenophora teres = Pyrenophora teres / barley / leaf disc preventative (net blotch); type: in vivo; details: foliar, compared to untreated control
Method: Example B12: Pyrenophora teres/Barley/Leaf Disc Preventative (Net Blotch) Barley leaf segments cv. Hasso are placed on agar in a multiwell plate (24-well format) and sprayed with the formulated test compound diluted in water. The leaf segments are inoculated with a spore suspension of the fungus 2 days after application. The inoculated leaf segments are incubated at 20° C. and 65% rh under a light regime of 12 h light/12 h darkness in a climate cabinet and the activity of a compound is assessed as disease control compared to untreated when an appropriate level of disease damage appears in untreated check leaf segments (5 to 7 days after application).

Pythium ultimum = Pythium ultimum / liquid culture (seedling damping off); type: cell-based; details: 20 ppm, compared to untreated control
Method: Example B13: Pythium ultimum/Liquid Culture (Seedling Damping Off) Mycelia fragments and oospores of a newly grown liquid culture of the fungus are directly mixed into nutrient broth (PDB potato dextrose broth). After placing a (DMSO) solution of test compound into a microtiter plate (96-well format), the nutrient broth containing the fungal mycelia/spore mixture is added. The test plates are incubated at 24° C. and the inhibition of growth is determined photometrically 2 to 3 days after application.

Alternaria solani = Alternaria solani / tomato / leaf disc (early blight); type: in vivo; details: foliar, compared to untreated control
Method: Example B1: Alternaria solani/Tomato/Leaf Disc (Early Blight) Tomato leaf disks cv. Baby are placed on agar in multiwell plates (24-well format) and sprayed with the formulated test compound diluted in water. The leaf disks are inoculated with a spore suspension of the fungus 2 days after application. The inoculated leaf disks are incubated at 23° C./21° C.

[1] = test system: Mycosphaerella arachidis (Cercospora arachidicola); experiment: Mycosphaerella arachidis (Cercospora arachidicola) / liquid culture (early leaf spot); type: cell-based; details: compared to untreated control
Method: (§1) Example B9: Mycosphaerella arachidis (Cercospora arachidicola)/Liquid Culture (Early Leaf Spot) Conidia of the fungus from cryogenic storage are directly mixed into nutrient broth (PDB potato dextrose broth). After placing a (DMSO) solution of test compound into a microtiter plate (96-well format), the nutrient broth containing the fungal spores is added. The test plates are incubated at 24° C. and the inhibition of growth is determined photometrically 4 to 5 days after application.

[2] = test system: Mycosphaerella graminicola (Septoria tritici); experiment: Mycosphaerella graminicola (Septoria tritici) / liquid culture (Septoria blotch); type: cell-based; details: Zymoseptoria tritici, compared to untreated control
Method: as §1, with “B15:” for “B9:”, “graminicola (Septoria tritici)/Liquid” for “arachidis (Cercospora arachidicola)/Liquid”, “(Septoria Blotch)” for “(Early Leaf Spot)”

Phytophthora infestans = type: in vivo; details: 200 ppm; tomato leaf disc preventative; compared to untreated control
[3] = test system: Monographella nivalis (Microdochium nivale); experiment: Monographella nivalis (Microdochium nivale) / liquid culture (foot rot cereals); type: cell-based; details: compared to untreated control
Method: as §1, with “B8: Monographella nivalis (Microdochium nivale)/Liquid” for “B9: Mycosphaerella arachidis (Cercospora arachidicola)/Liquid”, “(Foot Rot Cereals)” for “(Early Leaf Spot)”

[4] = test system: Glomerella lagenarium (Colletotrichum lagenarium); experiment: Glomerella lagenarium (Colletotrichum lagenarium) / liquid culture (anthracnose); type: cell-based; details: Colletotrichum orbiculare, compared to untreated control
Method: as §1, with “B3: Glomerella lagenarium (Colletotrichum lagenarium)/Liquid” for “B9: Mycosphaerella arachidis (Cercospora arachidicola)/Liquid”, “(Anthracnose)” for “(Early Leaf Spot)”, “measured” for “determined”, “photometrically 3 to” for “photometrically”, “4” for “4 to 5”

[5] = test system: Gibberella zeae (Fusarium graminearum); type: in vivo; details: 200 ppm; wheat spikelet preventative; compared to untreated control

Compound	pest or weed control at 200 ppm (Pyrenophora teres) [%]	control of Pythium ultimum (Pythium ultimum)	pest or weed control at 200 ppm (Alternaria solani) [%]	inhibition of growth at 20 ppm [1] [%]	inhibition of growth at 20 ppm [2] [%]	control of Phytophthora infestans (Phytophthora infestans)	inhibition of growth at 20 ppm [3] [%]	inhibition of growth at 20 ppm [4] [%]	control of Gibberella zeae [5]
Cc1c(C2CN(C(=O)CCc3ccc(F)cc3F)Cc3ccccc32)cnn1C (centres unmarked) [Compound P-6, 3-(2,4-difluorophenyl)-1-[4-(1,5-dimethylpyrazol-4-yl)-3,4-dihydro-1H-isoquinolin-2-yl]propan-1-one]	≥ 80	at least 80%	≥ 80	≥ 80	≥ 80	–	–	–	–
Cc1c(C2CN(C(=O)CCC3CCCC3)Cc3ccccc32)cnn1C (centres unmarked) [Compound P-17, 3-cyclopentyl-1-[4-(1,5-dimethylpyrazol-4-yl)-3,4-dihydro-1H-isoquinolin-2-yl]propan-1-one]	–	–	–	–	≥ 80	at least 80%	–	–	–
Cc1c([C@H]2CN(C(=O)CCCCCC(F)F)[C@@H](C)c3ccccc32)cnn1C [Compound P-46, 1-[(1S,4S)-4-(1,5-dimethylpyrazol-4-yl)-1-methyl-3,4-dihydro-1H-isoquinolin-2-yl]-7,7-difluoro-heptan-1-one]	≥ 80	–	≥ 80	≥ 80	≥ 80	–	≥ 80	≥ 80	at least 80%
